Active and inactive are the calls of the source. No cut-off for these calls is given here.

From ChEMBL document CHEMBL4732064, “Structure-activity relationship studies of phenothiazine derivatives as a new class of ferroptosis inhibitors together with the therapeutic effect in an ischemic stroke model” (Eur J Med Chem, 2021) come the findings set out here.

Experiment [1] concerns the target T1, 5-hydroxytryptamine receptor 2C (Homo sapiens) (UniProt P28335).
T1 sequence (whole entry): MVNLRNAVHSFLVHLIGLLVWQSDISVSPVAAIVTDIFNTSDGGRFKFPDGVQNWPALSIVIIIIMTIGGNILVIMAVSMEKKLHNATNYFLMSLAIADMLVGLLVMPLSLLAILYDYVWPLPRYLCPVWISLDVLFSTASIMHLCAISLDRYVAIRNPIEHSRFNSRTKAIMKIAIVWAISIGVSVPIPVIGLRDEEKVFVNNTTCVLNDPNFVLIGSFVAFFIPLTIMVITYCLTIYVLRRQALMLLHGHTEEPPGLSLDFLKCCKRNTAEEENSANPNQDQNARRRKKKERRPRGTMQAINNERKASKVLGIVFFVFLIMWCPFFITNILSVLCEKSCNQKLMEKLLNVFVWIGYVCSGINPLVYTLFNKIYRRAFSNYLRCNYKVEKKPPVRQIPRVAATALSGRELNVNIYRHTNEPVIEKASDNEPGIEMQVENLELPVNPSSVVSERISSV
As to the kind of experiment: Antagonist activity at HTR2C (unknown origin) by FLIPR assay.

Experiment [2] deals with HT-1080. As to the kind of experiment: Antioxidant activity in erastin-induced human HT-1080 cell ferroptosis model assessed as decrease in lipid ROS accumulation at 0.01 to 1 uM incubated for 8 to 24 hrs by BODIPY 581/591 C11 staining based flow cytometric analysis. In kind it is functional. As to conditions: dose 0.01-1 µM, time 8-24 hrs. A general note: Flow cytometry measures light scatter and fluorescence of single cells or particles in a stream.

In experiment [3] the test system is HT-1080. In words: Inhibition of H2O2-induced oxidative cell death in human HT-1080 cells at 10 uM incubated for 24 hrs. In kind it is functional, cell-based.
Experiment [4] concerns the target T2, Histone acetyltransferase type B catalytic subunit (Homo sapiens, UniProt O14929).
T2 sequence (O14929 whole entry): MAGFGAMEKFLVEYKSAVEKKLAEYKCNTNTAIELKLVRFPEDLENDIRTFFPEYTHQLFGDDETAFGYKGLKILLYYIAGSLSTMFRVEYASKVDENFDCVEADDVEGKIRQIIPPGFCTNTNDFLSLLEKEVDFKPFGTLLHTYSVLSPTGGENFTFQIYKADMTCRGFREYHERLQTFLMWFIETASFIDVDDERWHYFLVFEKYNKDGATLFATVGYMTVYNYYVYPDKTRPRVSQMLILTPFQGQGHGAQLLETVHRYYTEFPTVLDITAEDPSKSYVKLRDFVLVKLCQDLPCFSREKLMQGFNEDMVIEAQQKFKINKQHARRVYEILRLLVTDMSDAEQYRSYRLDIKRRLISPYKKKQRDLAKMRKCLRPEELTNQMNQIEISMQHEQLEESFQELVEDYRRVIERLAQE
In words: Inhibition of HAT1 (unknown origin).

A short description of experiment [5]: Metal chelating activity assessed as iron chelation.
In experiment [6] the test system is HT-1080. In words: Increase in GSH level in erastin-induced human HT-1080 cell ferroptosis model at 0.01 to 1 uM. As to conditions: dose 0.01-1 µM. It counts as functional.
For experiment [7], the target named is D(2) dopamine receptor (Homo sapiens) (UniProt P14416). As to the kind of experiment: Antagonist activity at DRD2L (unknown origin) by FLIPR assay.
Sequence of D(2) dopamine receptor (Homo sapiens) (P14416 whole entry): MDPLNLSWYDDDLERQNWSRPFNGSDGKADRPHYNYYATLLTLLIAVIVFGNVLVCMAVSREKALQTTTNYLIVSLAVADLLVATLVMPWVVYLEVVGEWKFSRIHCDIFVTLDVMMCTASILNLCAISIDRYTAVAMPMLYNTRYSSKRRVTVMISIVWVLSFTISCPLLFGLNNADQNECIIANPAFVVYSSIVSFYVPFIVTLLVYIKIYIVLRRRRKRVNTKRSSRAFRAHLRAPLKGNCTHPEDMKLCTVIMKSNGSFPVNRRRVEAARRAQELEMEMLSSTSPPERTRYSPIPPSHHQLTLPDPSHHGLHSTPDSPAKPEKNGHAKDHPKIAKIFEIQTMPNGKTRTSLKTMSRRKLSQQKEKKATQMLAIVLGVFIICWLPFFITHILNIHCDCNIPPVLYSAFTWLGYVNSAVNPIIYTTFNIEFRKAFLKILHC
Experiment [8] deals with Calu-1. In words: Antioxidant activity in erastin-induced human Calu-1 cell ferroptosis model assessed as decrease in cytosolic ROS accumulation at 0.01 to 1 uM incubated for 8 to 24 hrs by DCFH-DA staining based assay. It counts as functional. As to conditions: dose 0.01-1 µM, time 8-24 hrs.
Experiment [9] concerns Rattus norvegicus. As to the kind of experiment: Protective activity in Sprague-Dawley rat model of middle cerebral artery occlusion-induced ischemia-reperfusion injury assessed as prevention of reperfusion injury at 5 mg/kg, iv measured after 24 hrs of post reperfusion by TTC staining based assay. In kind it is functional, organism-based.
The subject of experiment [10] is HT-1080. In words: Inhibition of xCT expression in erastin-induced human HT-1080 cell ferroptosis model at 0.01 to 1 uM after 10 hrs by Western blot analysis. It counts as functional. To be noted: dose 0.01-1 µM. Background: In western blotting, separated proteins are transferred to a membrane and probed.
In experiment [11] the target is Histamine H1 receptor (Homo sapiens) (UniProt P35367). In words: Antagonist activity at H1 (unknown origin) by FLIPR assay.
Sequence of Histamine H1 receptor (Homo sapiens) (P35367 whole entry): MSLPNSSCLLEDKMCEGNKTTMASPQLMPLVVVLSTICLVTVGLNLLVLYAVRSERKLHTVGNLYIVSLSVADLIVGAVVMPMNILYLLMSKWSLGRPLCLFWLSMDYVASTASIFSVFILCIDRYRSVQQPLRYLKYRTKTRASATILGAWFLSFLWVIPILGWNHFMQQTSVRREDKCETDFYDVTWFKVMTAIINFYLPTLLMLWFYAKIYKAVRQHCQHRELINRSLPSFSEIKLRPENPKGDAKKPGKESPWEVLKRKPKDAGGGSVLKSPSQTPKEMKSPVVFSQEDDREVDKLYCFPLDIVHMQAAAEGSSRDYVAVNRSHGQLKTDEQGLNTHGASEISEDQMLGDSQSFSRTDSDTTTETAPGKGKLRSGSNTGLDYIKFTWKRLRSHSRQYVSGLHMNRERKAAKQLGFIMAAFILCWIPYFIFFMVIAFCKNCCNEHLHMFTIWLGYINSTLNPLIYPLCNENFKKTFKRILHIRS
Experiment [12] has as its system HT-1080. As to the kind of experiment: Inhibition of rotenone-induced oxidative cell death in human HT-1080 cells at 10 uM incubated for 24 hrs. It counts as functional, cell-based.
For experiment [13], the system named is Rattus norvegicus. In words: Protective activity in Sprague-Dawley rat model of middle cerebral artery occlusion-induced ischemia-reperfusion injury assessed as increase in GSH level at 5 mg/kg, iv measured after 24 hrs of post reperfusion […]. It counts as functional, organism-based.
In experiment [14] the test system is HT-29. As to the kind of experiment: Protection against TNFalpha/Smac-mimetic/Z-VAD-FMK-induced necroptosis in human HT-29 cells assessed as cell viability at 10 uM. In kind it is functional, cell-based.
The test system of experiment [15] is HT-1080. As to the kind of experiment: Inhibition of LOX expression in erastin-induced human HT-1080 cell ferroptosis model at 0.01 to 1 uM after 10 hrs by Western blot analysis. It counts as functional. To be noted: dose 0.01-1 µM.

As to `CC(c1ccc(N2CCN(C)CC2)cc1)c1ccc2c(c1)Nc1ccccc1S2` (stereo not given), the outcome in experiment [1], in experiment [3], in experiment [5], in experiment [7], in experiment [11] and in [14] was inactive. Further, the result in experiment [2], in [6], in experiment [8], in [9] and in experiment [13] was Active. In addition, the 50% inhibitory concentration (IC50) (commonly the concentration needed to halve the response being measured) in experiment [4] is over 10 µM. For the same compound, the inhibition entry in [10], in experiment [12] and in experiment [15] was “inactive” each time.
